# ChEMBL document CHEMBL1201862, “PubChem BioAssay data set” (2004)
#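 Following 48 hours of exposure in 96-well plates, responses at five concentrations were used to interpolate endpoints linearly. At the GI50, growth is halved.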 The source made the active and inactive calls. Rule as the data show it: active = GI50 up to about 1.1 µM and inactive = higher. Non-standard residues stand in square brackets, D forms with d. Residues, ends and D or L forms follow the SMILES beside them. ξ: configuration not given here. Pen = CC(C)(S)[C@H](N)C(=O)O; ξL = CC(C)CC(N)C(=O)O
# What was measured:
# Experiment in all cases: NCI-60 cell line screen, 48 h
# [1] = test system: CAKI-1
# [2] = test system: CCRF-CEM
# [3] = test system: HOP-92
# [4] = test system: IGROV-1
# [5] = test system: KM12
# [6] = test system: LOX IMVI
# [7] = test system: MOLT-4
# [8] = test system: NCI-H23
# [9] = test system: NCI-H522
# [10] = test system: NCI/ADR-RES
# [11] = test system: OVCAR-4
# [12] = test system: RXF 393
# [13] = test system: SF-539
# [14] = test system: SN12C
# [15] = test system: SNB-19
# [16] = test system: SNB-75
# [17] = test system: TK-10
# [18] = test system: UACC-257
# [19] = test system: UO-31
# [20] = test system: RPMI-8226
SMILES,GI50 [1],GI50 [2],GI50 [3],GI50 [4],GI50 [5],GI50 [6],GI50 [7],GI50 [8],GI50 [9],GI50 [10],GI50 [11],GI50 [12],GI50 [13],GI50 [14],GI50 [15],GI50 [16],GI50 [17],GI50 [18],GI50 [19],GI50 [20]
c1ccc(OCc2nnc(CCCCCCCCc3nnc(COc4ccccc4)o3)o2)cc1,> 100 µM (inactive),> 100 µM (inactive),55.6 µM (inactive),> 100 µM (inactive),> 100 µM (inactive),> 100 µM (inactive),> 100 µM (inactive),65.9 µM (inactive),50.6 µM (inactive),> 100 µM (inactive),> 100 µM (inactive),13.2 µM (inactive),32.2 µM (inactive),> 100 µM (inactive),73.8 µM (inactive),28.1 µM (inactive),> 100 µM (inactive),> 100 µM (inactive),> 100 µM (inactive),
CN(C)CCNC(=O)c1cc(Cl)cc2cc3ccccc3nc12,,0.498 µM (active),,1.14 µM (inactive),1.17 µM (inactive),0.597 µM (active),0.396 µM (active),1.39 µM (inactive),,0.766 µM (active),2.2 µM (inactive),1.06 µM (active),1.62 µM (inactive),0.731 µM (active),1.33 µM (inactive),2.27 µM (inactive),,1.6 µM (inactive),1.02 µM (active),0.721 µM (active)
CC[C@H]1CN2CCc3cc(OC)c(OC)cc3[C@@H]2C[C@@H]1C[C@H]1NCCc2cc(O)c(OC)cc21,0.025 µM (active),0.025 µM (active),,0.0385 µM (active),0.0296 µM (active),,0.0502 µM (active),0.0261 µM (active),0.025 µM (active),0.543 µM (active),0.025 µM (active),0.0354 µM (active),0.0308 µM (active),0.0361 µM (active),0.025 µM (active),,,0.0731 µM (active),0.146 µM (active),0.146 µM (active)
CN(C)C(=O)C(F)(F)C(c1ccc(Br)cc1)C1C(=O)N(C)C(=O)N(C)C1=O (stereo unspecified),> 100 µM (inactive),> 100 µM (inactive),> 100 µM (inactive),,> 100 µM (inactive),> 100 µM (inactive),,> 100 µM (inactive),,> 100 µM (inactive),> 100 µM (inactive),> 100 µM (inactive),,,> 100 µM (inactive),> 100 µM (inactive),> 100 µM (inactive),> 100 µM (inactive),> 100 µM (inactive),> 100 µM (inactive)
O=C1C=C/C(=C/[C@H]2SSC=C[C@]23C=CC(=O)C3)C1,9.91 µM (inactive),2.54 µM (inactive),20.6 µM (inactive),17.8 µM (inactive),21.3 µM (inactive),10.3 µM (inactive),1.36 µM (inactive),19.2 µM (inactive),11 µM (inactive),23.8 µM (inactive),30 µM (inactive),13.3 µM (inactive),12.2 µM (inactive),19.3 µM (inactive),36.1 µM (inactive),33.7 µM (inactive),24.7 µM (inactive),28.1 µM (inactive),14.8 µM (inactive),
COc1ccc(/C=C2\C[C@H]3[C@@H]4CCC5=C/C(=N/O)CC[C@]5(C)[C@H]4CC[C@]3(C)\C2=N\O)cc1OC,8.43 µM (inactive),6.76 µM (inactive),7.85 µM (inactive),47.4 µM (inactive),8.04 µM (inactive),18.8 µM (inactive),5.79 µM (inactive),43.4 µM (inactive),23.1 µM (inactive),26.4 µM (inactive),11 µM (inactive),28.4 µM (inactive),16.3 µM (inactive),12.7 µM (inactive),52.6 µM (inactive),> 100 µM (inactive),,6.07 µM (inactive),4.5 µM (inactive),4.49 µM (inactive)
CCOC(=O)CNC(=O)NC12CC3CC(CC(C3)C1)C2,169 µM (inactive),182 µM (inactive),22.1 µM (inactive),240 µM (inactive),150 µM (inactive),237 µM (inactive),180 µM (inactive),182 µM (inactive),142 µM (inactive),305 µM (inactive),294 µM (inactive),80.9 µM (inactive),203 µM (inactive),219 µM (inactive),270 µM (inactive),110 µM (inactive),,176 µM (inactive),171 µM (inactive),274 µM (inactive)
CC(=C(c1ccccc1)c1ccccc1)N1C(=O)CC(=O)N1C,21.1 µM (inactive),40 µM (inactive),45.5 µM (inactive),18.3 µM (inactive),50.4 µM (inactive),17 µM (inactive),38.4 µM (inactive),> 100 µM (inactive),,> 100 µM (inactive),32.1 µM (inactive),15.4 µM (inactive),26.3 µM (inactive),> 100 µM (inactive),81.7 µM (inactive),67.6 µM (inactive),43.3 µM (inactive),> 100 µM (inactive),17.1 µM (inactive),32.6 µM (inactive)
COc1cccc(N2C(=O)CSC2c2cccc(Oc3ccccc3)c2)c1 (stereo unspecified),2.03 µM (inactive),9.33 µM (inactive),6.21 µM (inactive),,4.35 µM (inactive),6.87 µM (inactive),3.88 µM (inactive),11.5 µM (inactive),3.34 µM (inactive),3.61 µM (inactive),10.3 µM (inactive),7.03 µM (inactive),4.27 µM (inactive),7.98 µM (inactive),8.41 µM (inactive),3.9 µM (inactive),4.45 µM (inactive),3.08 µM (inactive),9.66 µM (inactive),
Cc1ccnc2nc(N)ccc12,> 100 µM (inactive),> 100 µM (inactive),,> 100 µM (inactive),> 100 µM (inactive),,> 100 µM (inactive),> 100 µM (inactive),> 100 µM (inactive),> 100 µM (inactive),> 100 µM (inactive),> 100 µM (inactive),> 100 µM (inactive),> 100 µM (inactive),> 100 µM (inactive),66.7 µM (inactive),> 100 µM (inactive),> 100 µM (inactive),> 100 µM (inactive),> 100 µM (inactive)
C=CCc1cccc2cc(C(=O)Nc3ccc(C)cc3)c(=N)oc12,> 100 µM (inactive),> 100 µM (inactive),> 100 µM (inactive),> 100 µM (inactive),> 100 µM (inactive),> 100 µM (inactive),> 100 µM (inactive),> 100 µM (inactive),> 100 µM (inactive),> 100 µM (inactive),> 100 µM (inactive),> 100 µM (inactive),,> 100 µM (inactive),> 100 µM (inactive),> 100 µM (inactive),,> 100 µM (inactive),,> 100 µM (inactive)
CCCCCCSc1nc(N)nc2nc[nH]c12,,46.6 µM (inactive),28.8 µM (inactive),30.5 µM (inactive),55.6 µM (inactive),26.1 µM (inactive),> 55.2 µM (inactive),31.8 µM (inactive),15.7 µM (inactive),37.5 µM (inactive),52.7 µM (inactive),32.7 µM (inactive),35.3 µM (inactive),36.6 µM (inactive),39.4 µM (inactive),17 µM (inactive),,37.7 µM (inactive),24.3 µM (inactive),60.1 µM (inactive)
O=C(O)C(O)Cc1ccccn1 (stereo unspecified),> 100 µM (inactive),> 100 µM (inactive),> 100 µM (inactive),> 100 µM (inactive),> 100 µM (inactive),> 100 µM (inactive),,> 100 µM (inactive),> 100 µM (inactive),> 100 µM (inactive),> 100 µM (inactive),> 100 µM (inactive),,,> 100 µM (inactive),,> 100 µM (inactive),> 100 µM (inactive),> 100 µM (inactive),> 100 µM (inactive)
O=C(O)C(F)(F)C(F)(F)C(F)(F)C(F)(F)C(F)(F)C(F)(F)C(F)(F)C(F)(F)F,> 100 µM (inactive),28.2 µM (inactive),24.9 µM (inactive),> 100 µM (inactive),53.1 µM (inactive),42.3 µM (inactive),> 100 µM (inactive),61.4 µM (inactive),62.5 µM (inactive),44.9 µM (inactive),73.3 µM (inactive),> 100 µM (inactive),43.2 µM (inactive),50.5 µM (inactive),39.6 µM (inactive),71.8 µM (inactive),> 100 µM (inactive),> 100 µM (inactive),47.5 µM (inactive),
CSCC[C@H](NC(=O)C(CC(C)C)NC(=O)[C@H](Cc1c[nH]cn1)NC(=O)CNC(=O)[C@@H](NC(=O)[C@@H](C)NC(=O)[C@H](Cc1c[nH]c2ccccc12)NC(=O)[C@H](CCC(N)=O)NC(=O)[C@@H](N)CC(N)=O)C(C)(C)SC)C(N)=O (stereo partly specified) (H-NQW[dA][Pen](Me)GH[ξL]M-NH2),> 100 µM (inactive),> 100 µM (inactive),> 100 µM (inactive),> 100 µM (inactive),> 100 µM (inactive),> 100 µM (inactive),> 100 µM (inactive),> 100 µM (inactive),> 100 µM (inactive),> 100 µM (inactive),> 100 µM (inactive),> 100 µM (inactive),> 100 µM (inactive),> 100 µM (inactive),> 100 µM (inactive),> 100 µM (inactive),,> 100 µM (inactive),> 100 µM (inactive),
